Source: patent US11725015B2, “Macrocyclic compound and uses thereof” (President and Fellows of Harvard College, priority 2017, dated 2023)

Tests used:
[1] = tested on: HSC-2-Luc orthotopic transplantation (tongue); test: HSC-2 orthotopic transplantation mouse model; format: in vivo, mice; settings: Q7D×3
[2] = not only in vitro but also in vivo; cited from earlier work
[3] = in comparison with Halichondrin B; cited from earlier work
[4] = various in vivo models; cited from earlier work

For `N.N.[Cl][Pt][Cl]` [Cisplatin, cisplatin, reference compound], the “ILS (%)” value ([1]; 5 mg/kg intravenously + cetuximab 5 mg/kg) was 150% and the “ILS (%)” value ([1]; 5 mg/kg intravenously, without cetuximab) was 0%.
In the case of `C=C1C[C@@H]2CC[C@@]34C[C@H]5O[C@H]6[C@@H](O3)[C@H]3O[C@H](CC[C@@H]3O[C@H]6[C@H]5O4)CC(=O)O[C@@H]3[C@@H](C)[C@@H]4O[C@@H]5C[C@]6(CC7O[C@@]8(C[C@H](C)C7O6)C[C@H](C)[C@@H]6O[C@H](CC(=O)O)[C@H](O)C[C@@H]6O8)O[C@@H]5CC4O[C@H]3C[C@H]3O[C@@H](CC[C@@H]1O2)C[C@@H](C)C3=C` (some centres unmarked) [Norhalichondrin B], the “anti-tumor activity compared with Halichondrin B” value [2] is listed as “much weaker than Halichondrin B”.
In the case of `C=C1C[C@@H]2CC[C@@]34C[C@@]5(O)O[C@H]6[C@@H](O3)[C@H]3O[C@H](CC[C@@H]3O[C@H]6[C@H]5O4)CC(=O)O[C@@H]3[C@@H](C)[C@@H]4O[C@@H]5C[C@]6(C[C@@H]7O[C@]8(C[C@H](C)[C@@H]9O[C@H]([C@@H](O)C[C@@H](O)CO)C[C@@H]9O8)C[C@H](C)[C@@H]7O6)O[C@@H]5C[C@@H]4O[C@H]3C[C@H]3O[C@@H](CC[C@@H]1O2)C[C@@H](C)C3=C` [Halichondrin C], the “stability in aqueous solution” value [3] is given as “unstable in aqueous solution” and the activity in vivo [4] is given as “active in various in vivo models”.
